Assay results reported in US9115145B2, “Tocotrienol derivatives and associated methods” (FIRST TECH INTERNATIONAL LIMITED, priority 2011, dated 2015).
Read-outs that look alike come from different tables or passages of the source.

Key:
[1] = system: +SA mammary epithelial cells; test: MTT assay of +SA cells (antiproliferative activity); assay type: cell-based, mouse; conditions: 24 hours treatment, read-out: IC50 antiproliferative activity against +SA mammary epithelial cells
Procedure, shortened: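 Mouse +SA mammary adenocarcinoma cells in serum-free DMEM/F12 were grown 3 days, then treated 24 h with BSA-conjugated compounds (0–40 μM; DMSO <0.1%). Viable cell number came from MTT (570 nm) against a cell standard curve. IC50 was derived by linear regression.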

[2] = system: 60 human tumor cell lines; test: NCI in vitro screening against 60 human cell lines, single concentration; assay type: cell-based; conditions: 10 μM dose; negative values indicate cytotoxicity
Protocol: Compounds selected from Compounds 3-44 were provided to the National Cancer Institute for in vitro screening against 60-human cell lines for their ability to inhibit the growth of tumor cells in a full panel representing nine different organs (blood, lung, colon, CNS, skin, ovary, kidney, prostate, and breast). The compounds were tested at a single concentration of 10 μM, and the percentages of growth inhibitions over the sixty tested cell lines were determined. Compounds showing the highest activity were chosen for secondary assays using five different compound concentrations.
The human tumor cell lines of the cancer screening panel were grown in RPMI 1640 medium containing 5% fetal bovine serum and 2 mM L-glutamine. For a typical screening experiment, cells are inoculated into 96 well microtiter plates in 100 μL at plating densities ranging from 5000 to 40,000 cells/well depending on the doubling time of individual cell lines. After cell inoculation, the microtiter plates are incubated at 37° C., 5% CO2, 95% air and 100% relative humidity for 24 hours prior to addition of experimental drugs. After 24 hours, two plates of each cell line are fixed in situ with Trichloroacetic acid (“TCA”), to represent a measurement of the cell population for each cell line at the time of drug addition. Experimental drugs are solubilized in dimethyl sulfoxide at 400-fold the desired final maximum test concentration and stored frozen prior to use. At the time of drug addition, an aliquot of frozen concentrate is thawed and diluted to twice the desired final maximum test concentration with complete medium containing 50 ng/mL gentamicin. An aliquot of 100 μL of this drug dilution is added to the appropriate microtiter wells already containing 100 μL of medium, resulting in the required final drug concentrations. Following drug addition, the plates are incubated for an additional 48 h at 37° C., 5% CO2, 95% air, and 100% relative humidity. For adherent cells, the assay is terminated by the addition of cold TCA. Cells are fixed in situ by the gentle addition of 50 μL of cold 50% (w/v) TCA (final concentration, 10% TCA) and incubated for 60 min at 4° C. The supernatant is discarded, and the plates are washed five times with tap water and air dried. Sulforhodamine B (SRB) solution (100 μL) at 0.4% (w/v) in 1% acetic acid is added to each well, and plates are incubated for 10 min at room temperature. After staining, unbound dye is removed by washing five times with 1% acetic acid and the plates are air dried. Bound stain is subsequently solubilized with 10 mM trizma base, and the absorbance is read on an automated plate reader at a wavelength of 515 nm. For suspension cells, the methodology is the same except that the assay is terminated by fixing settled cells at the bottom of the wells by gently adding 50 μL of 80% TCA (final concentration, 16% TCA). FIGS. 37-74 indicate the growth inhibition effects of selected Compounds against a variety of cell lines based on the above described testing configuration. FIGS. 37-74 present the Growth percent for a given compound against the cell lines and both values and a bar chart of the difference between the mean growth percent and the growth percent which is an indication of the selectivity of the compound for that particular cell line.

Row | SMILES | IC50 ([1]; Mus musculus, +SA cell) | mean percent growth across all 60 cell lines (mean 60) [2] | IC50 [1]
1 | COc1ccc(CCNCc2c(O)c(C)c(C)c3c2CC[C@@](C)(CC/C=C(\C)CC/C=C(\C)CCC=C(C)C)O3)cc1OC [Compound 30, (R)-5-((3,4-dimethoxyphenethylamino)methyl)-2,7,8-trimethyl-2-((3E,7E)-4,8,12-trimethyltrideca-3,7,11-trienyl)chroman-6-ol] | 3.19 µM | comparable to the activity of Compound 1 | –
2 | CC(C)=CCC/C(C)=C/CC/C(C)=C/CC[C@]1(C)CCc2cc(O)c(C)c(C)c2O1 [Compound 1, γ-tocotrienol, reference compound] | – | inactive | 4 µM
